# Data as given in patent publication US20260027125A1, “AN ANTIBACTERIAL PARENTERAL FORMULATION AND METHODS THEREOF” (BUGWORKS RESEARCH INDIA PVT. LTD., priority 2022, published 2026).
# Where a name gives a salt, the structure may show the parent alone.
# Columns and labels:
# Citrobacter freundii = experiment: microbe, parasite or virus in culture; type: cell-based
# [1] = test system: Stenotrophomonas maltophilia; experiment: microbe, parasite or virus in culture; type: cell-based
# [2] = test system: Klebsiella oxytoca, aerogenes; experiment: microbe, parasite or virus in culture; type: cell-based
# Enterobacter aerogenes = experiment: microbe, parasite or virus in culture; type: cell-based
# [3] = test system: Proteus mirabilis, vulgaris; experiment: microbe, parasite or virus in culture; type: cell-based
# Achromobacter spp. = experiment: microbe, parasite or virus in culture; type: cell-based
# Enterococcus faecium = experiment: microbe, parasite or virus in culture; type: cell-based
# Staphylococcus aureus = experiment: microbe, parasite or virus in culture; type: cell-based
# Salmonella species = experiment: microbe, parasite or virus in culture; type: cell-based
# [4] = test system: Bacteroides fragilis (anaerobe); experiment: microbe, parasite or virus in culture; type: cell-based
# Acinetobacter baumannii = experiment: microbe, parasite or virus in culture; type: cell-based
# Helicobacter pylori = experiment: microbe, parasite or virus in culture
# [5] = Solubility enhancement trials; type: physicochemical
# Procedure: All observations were recorded once the solution temperature reached to 25° C.-30° C.
# Enterobacter cloacae = experiment: microbe, parasite or virus in culture; type: cell-based
# Streptococcus pyogenes = experiment: microbe, parasite or virus in culture; type: cell-based
# [6] = test system: Clostridium difficile (anaerobe); experiment: microbe, parasite or virus in culture; type: cell-based
# [7] = test system: Burkholderia pseudomallei; experiment: microbe, parasite or virus in culture; type: cell-based
# Burkholderia mallei = experiment: microbe, parasite or virus in culture; type: cell-based
# [8] = test system: Coagulase-negatives Staphylococcus; experiment: microbe, parasite or virus in culture; type: cell-based
# A. baumannii ATCC 17978 = experiment: Neutropenic murine model of thigh infection; type: in vivo, Acinetobacter baumannii; details: neutropenic mice
# Neisseria gonorrhoea = experiment: microbe, parasite or virus in culture
# Enterococcus faecalis = experiment: microbe, parasite or virus in culture; type: cell-based
# Hemophilus influenzae = experiment: microbe, parasite or virus in culture; type: cell-based
# Bacillus anthracis = experiment: microbe, parasite or virus in culture; type: cell-based
# Pseudomonas aeruginosa = experiment: microbe, parasite or virus in culture; type: cell-based
# Francisella tularensis = experiment: microbe, parasite or virus in culture; type: cell-based
compound,measurement,setting,value
"Cn1c(=O)ccc2ccc(F)c(CCNC[C@H]3CN(c4cnc5c(n4)NC(=O)CO5)C(=O)O3)c21 [compound of Formula (I) formate salt, (S)-6-(5-(((2-(7-fluoro-1-methyl-2-oxo-1,2-dihydroquinolin-8-yl)ethyl)amino)methyl)-2-oxooxazolidin-3-yl)-2H-pyrazino[2,3-b][1,4]oxazin-3(4H)-one formate]","MIC Range, high end",Citrobacter freundii,8 µg/mL
same,"MIC Range, low end",Citrobacter freundii,0.03 µg/mL
same,MIC50,Citrobacter freundii; Citrobacter freundii,0.25 µg/mL
same,MIC90,Citrobacter freundii; Citrobacter freundii,1 µg/mL
same,"MIC Range, high end",[1],2 µg/mL
same,"MIC Range, low end",[1],0.03 µg/mL
same,MIC50,[1]; Stenotrophomonas maltophilia,0.06 µg/mL
same,MIC90,[1]; Stenotrophomonas maltophilia,0.25 µg/mL
same,"MIC Range, high end",[2],4 µg/mL
same,"MIC Range, low end",[2],0.06 µg/mL
same,MIC50,[2]; Klebsiella oxytoca,0.25 µg/mL
same,MIC90,[2]; Klebsiella oxytoca,0.5 µg/mL
same,"MIC Range, high end",Enterobacter aerogenes,0.25 µg/mL
same,"MIC Range, low end",Enterobacter aerogenes,0.25 µg/mL
same,MIC50,Enterobacter aerogenes; Klebsiella aerogenes,0.25 µg/mL
same,MIC90,Enterobacter aerogenes; Klebsiella aerogenes,0.25 µg/mL
same,"MIC Range, high end",[3],2 µg/mL
same,"MIC Range, low end",[3],0.03 µg/mL
same,MIC50,[3]; Proteus mirabilis,0.12 µg/mL
same,MIC90,[3]; Proteus mirabilis,0.5 µg/mL
same,"MIC Range, high end",Achromobacter spp.,0.5 µg/mL
same,"MIC Range, low end",Achromobacter spp.,≤0.015 µg/mL
same,MIC50,Achromobacter spp.; Achromobacter,0.06 µg/mL
same,MIC90,Achromobacter spp.; Achromobacter,0.12 µg/mL
same,"MIC Range, high end",Enterococcus faecium,0.5 µg/mL
same,"MIC Range, low end",Enterococcus faecium,<0.015 µg/mL
same,MIC50,Enterococcus faecium; Enterococcus faecium,0.03 µg/mL
same,MIC90,Enterococcus faecium; Enterococcus faecium,0.12 µg/mL
same,"MIC Range, high end",Staphylococcus aureus,0.5 µg/mL
same,"MIC Range, low end",Staphylococcus aureus,<0.015 µg/mL
same,MIC50,Staphylococcus aureus; Staphylococcus aureus,0.03 µg/mL
same,MIC90,Staphylococcus aureus; Staphylococcus aureus,0.03 µg/mL
same,"MIC Range, high end",Salmonella species,2 µg/mL
same,"MIC Range, low end",Salmonella species,0.03 µg/mL
same,MIC50,Salmonella species; Salmonella,0.12 µg/mL
same,MIC90,Salmonella species; Salmonella,0.25 µg/mL
same,"MIC Range, high end",[4],8 µg/mL
same,"MIC Range, low end",[4],≤0.015 µg/mL
same,MIC50,[4]; Bacteroides fragilis,0.06 µg/mL
same,MIC90,[4]; Bacteroides fragilis,0.25 µg/mL
same,"MIC Range, high end",Acinetobacter baumannii,4 µg/mL
same,"MIC Range, low end",Acinetobacter baumannii,0.03 µg/mL
same,MIC50,Acinetobacter baumannii; Acinetobacter baumannii,0.25 µg/mL
same,MIC90,Acinetobacter baumannii; Acinetobacter baumannii,0.5 µg/mL
same,MIC50,Helicobacter pylori,≤ 0.015 µg/mL
same,MIC90,Helicobacter pylori,≤ 0.015 µg/mL
same,pH,[5]; Sr. No. 2: 7.5% Citric acid solution,1.96
same,pH,[5]; Sr. No. 6: 7.5% Citric acid + 20% HPβ-CD,1.94
same,pH,[5]; Sr. No. 9: 10% Ascorbic acid + 1% PVP K-12 + 20% HPβ-CD,2.9
same,pH,[5]; Sr. No. 10: 5% Ascorbic acid + 2% PVP K-12 + 20% HPβ-CD,3.19
same,pH,[5]; Sr. No. 11: 7.5% Ascorbic acid + 2% PVP K-12 + 20% HPβ-CD,3.08
same,pH,[5]; Sr. No. 12: 7.5% Ascorbic acid + 1% PVP K-12 + 20% HPβ-CD,3.07
same,pH,[5]; Sr. No. 13: 5% Ascorbic acid + […] Lactic acid + 1% PVP K-12 + 20% HPβ-CD,2.88
same,pH,[5]; Sr. No. 14: 5% Ascorbic acid + 1% PVP K-12 + 30% HPβ-CD,3.25
same,pH,[5]; Sr. No. 15: 7.5% Ascorbic acid + 1% PVP K-12 + 30% HPβ-CD,3.15
same,pH,[5]; Sr. No. 17: 10% Ascorbic acid + 1% PVP K-12 + 30% HPβ-CD,3.03
same,pH,[5]; Sr. No. 18: 7% Ascorbic acid + […] Acetic acid + 1% PVP K-12 + 30% HPβ-CD,3.06
same,pH,[5]; Sr. No. 19: 7% Ascorbic acid + 0.9% Glycine + 30% HPβ-CD,3.25
same,pH,[5]; Sr. No. 20: 7% Ascorbic acid + […] Acetic acid + 0.9% Glycine + 30% HPβ-CD,3.16
same,pH,[5]; Sr. No. 21: 7% Ascorbic acid + […] lactic acid + 1% PVP K-12 + 30% HPβ-CD,2.91
same,pH,[5]; Sr. No. 22: 6% Ascorbic acid + […] Acetic acid + […] lactic acid + 1% PVP K-12 + 30% HPβ-CD,2.84
same,pH,"[5]; Sr. No. 23: Acetate Buffer (200 mM, pH 3.0) + 6% Ascorbic acid + […] lactic acid + 1% PVP K-12 + 30% HPβ-CD",2.78
same,pH,"[5]; Sr. No. 24: 5% Ascorbic acid + […] Acetic acid + […] lactic acid + 1% PVP K-12 + 30% HPβ-CD, pH adjusted by L-Arginine Solution",3.73
same,"MIC Range, high end",Enterobacter cloacae,32 µg/mL
same,"MIC Range, low end",Enterobacter cloacae,≤0.015 µg/mL
same,MIC50,Enterobacter cloacae; Enterobacter cloacae,0.25 µg/mL
same,MIC90,Enterobacter cloacae; Enterobacter cloacae,1 µg/mL
same,"MIC Range, high end",Streptococcus pyogenes,0.06 µg/mL
same,"MIC Range, low end",Streptococcus pyogenes,0.03 µg/mL
same,MIC50,Streptococcus pyogenes; Streptococcus pyogenes,0.03 µg/mL
same,MIC90,Streptococcus pyogenes; Streptococcus pyogenes,0.03 µg/mL
same,"MIC Range, high end",[6],0.06 µg/mL
same,"MIC Range, low end",[6],<0.015 µg/mL
same,MIC50,[6]; Clostridioides difficile,< 0.015 µg/mL
same,MIC90,[6]; Clostridioides difficile,0.03 µg/mL
same,MIC50,[7],0.25 µg/mL
same,MIC90,[7],0.5 µg/mL
same,"MIC Range, high end",[7]; N 40 strains,4 µg/mL
same,"MIC Range, low end",[7]; N 40 strains,≤0.015 µg/mL
same,MIC50,Burkholderia mallei,0.25 µg/mL
same,MIC90,Burkholderia mallei,1 µg/mL
same,"MIC Range, high end",Burkholderia mallei; N 36 strains,4 µg/mL
same,"MIC Range, low end",Burkholderia mallei; N 36 strains,≤0.015 µg/mL
same,"MIC Range, high end",[8],0.03 µg/mL
same,"MIC Range, low end",[8],<0.015 µg/mL
same,MIC50,[8]; Staphylococcus,< 0.015 µg/mL
same,MIC90,[8]; Staphylococcus,< 0.015 µg/mL
same,effect on bacterial burden in thigh,"A. baumannii ATCC 17978; SC 10 mg/kg q8h, 26 hours",effective at reducing
same,effect on bacterial burden in thigh,"A. baumannii ATCC 17978; SC 30 mg/kg q8h, 26 hours",effective at reducing
same,effect on bacterial burden in thigh,"A. baumannii ATCC 17978; SC 60 mg/kg q8h, 26 hours",either a bacteriostatic or killing effect
same,effect on bacterial burden in thigh,"A. baumannii ATCC 17978; SC 90 mg/kg q8h, 26 hours",logarithmic killing
same,effect on bacterial burden in thigh,"A. baumannii ATCC 17978; SC 120 mg/kg q8h, 26 hours",logarithmic killing
same,efficacy compared with polymyxin B (SC 25 mg/kg q8h),A. baumannii ATCC 17978; doses ≥90 mg/kg q8h SC,more effective
same,efficacy compared with subcutaneous meropenem (200 mg/kg q8h),A. baumannii ATCC 17978; doses ≥90 mg/kg q8h SC,more effective
same,effect on bacterial burden in thigh,"A. baumannii ATCC 17978; ≥60 mg/kg q8h SC, across three replicate studies",logarithmic killing
same,MIC50,Neisseria gonorrhoea,≤ 0.015 µg/mL
same,MIC90,Neisseria gonorrhoea,≤ 0.015 µg/mL
same,"MIC Range, high end",Enterococcus faecalis,0.25 µg/mL
same,"MIC Range, low end",Enterococcus faecalis,<0.015 µg/mL
same,MIC50,Enterococcus faecalis; Enterococcus faecalis,0.03 µg/mL
same,MIC90,Enterococcus faecalis; Enterococcus faecalis,0.06 µg/mL
same,"MIC Range, high end",Hemophilus influenzae,≤0.015 µg/mL
same,"MIC Range, low end",Hemophilus influenzae,≤0.015 µg/mL
same,MIC50,Hemophilus influenzae; Haemophilus influenzae,≤ 0.015 µg/mL
same,MIC90,Hemophilus influenzae; Haemophilus influenzae,≤ 0.015 µg/mL
same,MIC50,Bacillus anthracis,≤ 0.015 µg/mL
same,MIC90,Bacillus anthracis,≤ 0.015 µg/mL
same,"MIC Range, high end",Bacillus anthracis; N 42 strains,≤0.015 µg/mL
same,"MIC Range, low end",Bacillus anthracis; N 42 strains,≤0.015 µg/mL
same,"MIC Range, high end",Pseudomonas aeruginosa,8 µg/mL
same,"MIC Range, low end",Pseudomonas aeruginosa,<0.015 µg/mL
same,MIC50,Pseudomonas aeruginosa; Pseudomonas aeruginosa,0.5 µg/mL
same,MIC90,Pseudomonas aeruginosa; Pseudomonas aeruginosa,1 µg/mL
same,MIC50,Francisella tularensis,≤ 0.015 µg/mL
same,MIC90,Francisella tularensis,≤ 0.015 µg/mL
same,"MIC Range, high end",Francisella tularensis; N 36 strains,≤0.015 µg/mL
same,"MIC Range, low end",Francisella tularensis; N 36 strains,≤0.015 µg/mL
